Where two headings read alike, the source gives them in different places. Non-standard residues stand in square brackets, D forms with d. Residues, ends and D or L forms follow the SMILES beside them. *: point of attachment. X1 = CC(C)C[C@H](NC[C@H](Cc1ccccc1)N*)C(N)=O; X2 = CC(C)C[C@@H](CN[C@@H](CC(C)C)C(N)=O)N*; Sta = CC(C)C[C@H](N)[C@@H](O)CC(=O)O; pGlu = O=C1CC[C@@H](C(=O)O)N1
Assays:
[1] = biological target: T1, 3T3 fibroblast bombesin receptors (3T3 GRP receptor) (Mus musculus, UniProt P21729); test: In vitro inhibition of [125I]GRP binding to 3T3 fibroblast bombesin receptors; set-up: species or system murine; details: for activity in the 3T3 GRP receptor binding assay (in words): Table 1
T1 construct: Membranes from various tissues (rat brain, rat pancreas, rat anterior pituitary, SCLC, 3T3 cells) are prepared by homogenization; endogenous in cells; host or cells: 3T3 fibroblasts (membrane preparation)
T1 sequence (P21729 whole entry): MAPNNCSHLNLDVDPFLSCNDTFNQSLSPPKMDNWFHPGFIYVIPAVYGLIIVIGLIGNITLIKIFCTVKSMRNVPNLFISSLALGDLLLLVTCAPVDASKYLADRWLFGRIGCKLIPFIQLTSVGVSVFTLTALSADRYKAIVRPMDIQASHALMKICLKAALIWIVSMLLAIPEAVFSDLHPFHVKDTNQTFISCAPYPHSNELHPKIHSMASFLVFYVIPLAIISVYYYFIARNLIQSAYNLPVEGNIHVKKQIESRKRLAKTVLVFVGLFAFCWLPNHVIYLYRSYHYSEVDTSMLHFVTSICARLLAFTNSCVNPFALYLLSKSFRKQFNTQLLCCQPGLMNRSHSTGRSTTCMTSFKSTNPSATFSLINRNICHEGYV
Description: Phase 4—In Vitro Inhibition of [^125I] Gastrin Releasing Peptide (GRP) Binding to Bombesin Receptors
Membranes from various tissues (rat brain, rat pancreas, rat anterior pituitary, SCLC, 3T3 cells) are prepared by homogenization in 50 mM TrisHCl containing 0.1% bovine serum albumin and 0.1 mg/ml bacitracin followed by two centrifugations (39,000×g×15 min., 4° C.) with an intermediate resuspension in-fresh buffer. For assay, aliquots […] are incubated with 0.5 nM [^125I]GRP (˜2000 Ci/mmol, Amersham Corp.) and various concentrations of the test compounds in a final volume of 0.5 ml. After a 30 minute incubation at 4° C., the binding reaction is terminated by rapid filtration through Whatman GF/C filters that have been pre-soaked in 0.3% aqueous polethyleneimine to reduce the level of nonspecific binding. The filters and tubes are washed three times with 4 ml aliquots of ice-cold buffer, and the radioactivity trapped on the filters is counted by gamma-spectrometry. Specific binding is defined as the total. [^125I]GRP bound minus that bound in the presence of 1000 nM. bombesin or a related peptide.
(§1) A number of analogs of bombesin or GRP, each containing a non-peptide bond or a statine, AHPPA, or ACHPA, β-amino acid, or γ-amino acid residue, can be synthesized and tested in one or more of the above-described Phase 1-7 assays; the results of Phase 1 and 2 tests are given in Table 1 attached hereto. […] (3T3 GRP receptor and thymidine uptake data are expressed in IC50 (nM).) Table 1 also gives results for non-peptide bond-containing analogs of one other naturally-occurring peptide, Neuromedin C, whose C-terminal seven amino acids are similar to those of bombesin and GRP. (In Table 1, “Litorin” indicates a 9 residue peptide analog or its derivative, whereas “Neuromedin C” indicates a 10 residue analog or its derivative.)

swiss 3T3 cells = swiss 3T3 cells (Mus musculus, UniProt P21729); test: Bombesin-stimulated [3H]thymidine uptake by cultured 3T3 cells; type: cell-based, murine; details: Table 1
Chain of swiss 3T3 cells (P21729 whole entry): as above
Description: Phase 1—3T3 Peptide Stimulated [^3H] Thymidine Uptake Assay
Cell Culture. Stock cultures of swiss 3T3 cells are grown in Dulbecco's Modified Eagles Medium (DMEM) supplemented with 10% fetal calf serum in humidified atmosphere of 10% CO2/90% air at 37° C. For experimental use, the cells are seeded into 24-well cluster trays and used four days after she last change of medium. The cells are arrested in the G1/G0 phase of the cell cycle by changing to serum-free DMEM 24 hours prior to the thymidine uptake assay.
Assay of DNA Synthesis. The cells are washed twice with 1 ml aliquots of DMEM (-serum) then incubated with DMEM (-serum), 0.5 μM [methyl-^3H] thymidine (20 Ci/mmole, New England Nuclear), bombesin (3 nM), and initially four concentrations of the test compounds (1, 10, 100, 1000 nM) in a final volume of 1.0 ml. After 28 hours at 37° C., [methyl-^3H] thymidine incorporation into acid-insoluble pools is assayed as follows. The cells are washed twice with ice-cold 0.9% NaCl (1 ml aliquots), and acid soluble radioactivity is removed by a 30 min. (4° C.) incubation with 5% trichloroacetic acid (TCA). The cultures are then washed once (1 ml) with 95% ethanol and solubilized by a 30 min. incubation (1 ml) with 0.1N NaOH. The solubilized material is transferred to vials containing 10 ml ScintA (Packard), and the radioactivity is determined by liquid scintillation spectrometry.
as §1

NCI-H69 human SCLC = test: In vivo antitumor activity, NCI-H69 small cell lung carcinoma xenografts; details: for Tumor Size Day 18 (mm) / % Test/Control (Day 18) / % Test/Control (Day 28) / Tumor Size Day 28 (mm): 50 μg/inj., b.i.d., QD1-28; for Tumor Size Day 18 (mm) / Tumor Size Day 28 (mm): mean ± SD
Description: Phase 6—In Vivo Antitumor Activity
NCI-H69 small cell lung carcinoma cells were transplanted from in vitro culture by implanting each animal with the equivalent of 5 confluent 75 cm^2 tissue culture flasks in the right flank. In vitro NCI-H69 cells grow as a suspension of cellular aggregates. Therefore, no attempt was made to disaggregate the cell agglomerates by physical or chemical means. Tumor size was calculated as the average of two diameters, i.e., (length and width/2) mm.
(§2) These observations prompted us to evaluate the effect of BIM-26100 on the in vivo growth of the SCLC tumor cell line described in Phase 6. Twenty athymic nude females, 5 to 6 weeks of age, were implanted on day 0 with the NCI-H69 human SCLC, individually identified and then randomized into the following vehicle control and test groups:
(§3) Growth of NCI-H69 xenografts and the tumor growth inhibitory activity of the bombesin antagonist BIM-26100 (pGlu-Gln-Trp-Ala-Val-Gly-His-Pheψ[CH2NH]Leu-NH2) are illustrated as tumor growth curves in FIG. 1, and relative tumor sizes in Table 2. […] The effectiveness of the antitumor activity of BIM-26100 is evident in view of the large inoculum of NCI-H69 tumor cells (i.e. the equivalent of 5 confluent 75 cm^2 cell culture flasks per animal) and the agglomerated condition of the cells. In confluent flasks, NCI-H69 agglomerates are macroscopically visible and together resemble a metastatic tumor colony. Many such tumor colonies were implanted per animal. The dose of BIM-26100 […] and is not optimal. Higher doses of BIM-26100 may be administered, as indicated by body weight gain (minus tumor weight) gain during the course of treatment (Table 3).

[2] = Body weight (minus tumor weight) during BIM-26100 treatment of tumor-bearing animals; type: in vivo, athymic nude females; details: for Body Weight(gm) Day 0 / Body Weight(gm) Day 18 / Body Weight(gm) Day 28: 50 μg/inj., b.i.d., QD1-28, tumor weight subtracted
Source text: as §2, §3

[3] = biological target: 3T3 fibroblast bombesin receptors (murine (3T3 murine fibroblasts)) (UniProt P21729)

CC(C)C[C@@H](CN[C@@H](CC(C)C)C(N)=O)NC(=O)[C@H](Cc1c[nH]cn1)NC(=O)CNC(=O)[C@@H](NC(=O)[C@H](C)NC(=O)[C@H](Cc1c[nH]c2ccccc12)NC(=O)[C@H](Cc1c[nH]cn1)NC(=O)[C@H](CC(N)=O)NC(=O)CN)C(C)C [BIM-26092, Gly-Asn-His-Trp-Ala-Val-Gly-His-Leuψ[CH2NH]Leu-NH2] (H-GNHWAVGH-X2)
activity in the 3T3 GRP receptor binding assay (in words) [1]: antagonists
activity in the 3T3 thymidine uptake assay (in words) (swiss 3T3 cells): antagonists

CC(C)C[C@@H](CN[C@@H](CC(C)C)C(N)=O)NC(=O)[C@H](Cc1c[nH]cn1)NC(=O)[C@@H](C)NC(=O)[C@@H](NC(=O)[C@H](C)NC(=O)[C@H](Cc1c[nH]c2ccccc12)NC(=O)[C@H](CCC(N)=O)NC(=O)[C@@H]1CCC(=O)N1)C(C)C [BIM-26095, pGlu-Gln-Trp-Ala-Val-D-Ala-His-Leuψ[CH2NH]Leu-NH2] ([pGlu]QWAV[dA]H-X2)
IC50 ([1]; inhibition of [125I]GRP binding, 3T3 membranes, read-out: 3T3 GRP Receptor IC50): 2620 nM

CC(C)C[C@H](NC[C@H](Cc1ccccc1)NC(=O)[C@H](Cc1c[nH]cn1)NC(=O)CNC(=O)[C@@H](NC(=O)[C@H](C)NC(=O)[C@H](Cc1c[nH]c2ccccc12)NC(=O)[C@H](CCC(N)=O)NC(=O)[C@@H]1CCC(=O)N1)C(C)C)C(N)=O [BIM-26100, pGlu-Gln-Trp-Ala-Val-Gly-His-Pheψ[CH2NH]Leu-NH2] ([pGlu]QWAVGH-X1)
activity in the 3T3 GRP receptor binding assay (in words) [1]: most active
Tumor Size Day 18 (mm) (NCI-H69 human SCLC; s.c. inf. (infused around tumor)): 7.6 ± 1.56 mm
% Test/Control (Day 18) (NCI-H69 human SCLC; s.c. inf.): 70%
% Test/Control (Day 28) (NCI-H69 human SCLC; s.c. inf.): 86%
Tumor Size Day 28 (mm) (NCI-H69 human SCLC; s.c. inf.): 13.7 ± 0.67 mm
% Test/Control (Day 18) (NCI-H69 human SCLC; s.c.): 93%
Tumor Size Day 18 (mm) (NCI-H69 human SCLC; s.c.): 10.1 ± 1.47 mm
% Test/Control (Day 28) (NCI-H69 human SCLC; s.c.): 108%
Tumor Size Day 28 (mm) (NCI-H69 human SCLC; s.c.): 17.3 ± 1.96 mm
tumor growth inhibitory activity (in words) (NCI-H69 human SCLC; s.c. infusion around the tumor): significantly inhibited tumor growth
Body Weight(gm) Day 0 ([2]; s.c. inf.): 17.7 gm
Body Weight(gm) Day 18 ([2]; s.c. inf.): 20.4 gm
Body Weight(gm) Day 28 ([2]; s.c. inf.): 21.1 gm
Body Weight(gm) Day 0 ([2]; s.c.): 16.9 gm
Body Weight(gm) Day 18 ([2]; s.c.): 19.2 gm
Body Weight(gm) Day 28 ([2]; s.c.): 19.1 gm
local or systemic toxicity (in words) ([2]; judged from body weight gain during treatment): completely lacks local or systemic toxicity

CC(C)C[C@@H](CN[C@@H](CC(C)C)C(N)=O)NC(=O)[C@H](Cc1c[nH]cn1)NC(=O)CNC(=O)[C@@H](NC(=O)[C@H](C)NC(=O)[C@H](Cc1c[nH]c2ccccc12)NC(=O)[C@H](CCC(N)=O)NC(=O)[C@@H]1CCC(=O)N1)C(C)C [BIM-26101, pGlu-Gln-Trp-Ala-Val-Gly-His-Leuψ[CH2NH]Leu-NH2] ([pGlu]QWAVGH-X2)
activity in the 3T3 GRP receptor binding assay (in words) [1]: most active

CC(C)C[C@@H](CN[C@@H](CC(C)C)C(N)=O)NC(=O)[C@H](Cc1c[nH]cn1)NC(=O)[C@@H](C)NC(=O)[C@@H](NC(=O)[C@H](C)NC(=O)[C@H](Cc1c[nH]c2ccccc12)NC(=O)[C@H](Cc1c[nH]cn1)NC(=O)[C@H](CC(N)=O)NC(=O)[C@@H](C)N)C(C)C [BIM-26105, D-Ala-Asn-His-Trp-Ala-Val-D-ALa-His-Leuψ[CH2CH]Leu-NH2] (H-[dA]NHWAV[dA]H-X2; N-terminus assumed)
IC50 [1]: 107 nM
activity in the 3T3 GRP receptor binding assay (in words) [1]: antagonists
activity in the 3T3 thymidine uptake assay (in words) (swiss 3T3 cells): antagonists

CC(C)C[C@@H](CN[C@@H](CC(C)C)C(N)=O)NC(=O)[C@H](Cc1c[nH]cn1)NC(=O)CNC(=O)[C@@H](NC(=O)[C@H](C)NC(=O)[C@H](Cc1c[nH]c2ccccc12)NC(=O)[C@H](CCC(N)=O)NC(=O)[C@H](N)Cc1ccccc1)C(C)C [BIM-26113, D-Phe-Gln-Trp-Ala-Val-Gly-His-Leuψ[CH2NH]Leu-NH2]
IC50 [1]: 5.8 nM
activity in the 3T3 GRP receptor binding assay (in words) [1]: active

CC(C)C[C@H](NC(=O)[C@H](Cc1c[nH]cn1)NC(=O)CNC(=O)[C@@H](NC(=O)[C@H](C)NC(=O)[C@H](Cc1c[nH]c2ccccc12)NC(=O)[C@H](CCC(N)=O)NC(=O)[C@@H]1CCC(=O)N1)C(C)C)[C@@H](O)CC(N)=O [BIM-26120, pGlu-Gln-Trp-Ala-Val-Gly-His-Sta-NH2] ([pGlu]QWAVGH[Sta]-NH2)
activity in the 3T3 thymidine uptake assay (in words) (swiss 3T3 cells): potent antagonists

BIM-26095, pGlu-Gln-Trp-Ala-Val-D-Ala-His-Leuψ[CH2NH]Leu-NH2 (Litorin analog) (peptide)
bombesin-stimulated [3H]Thymidine uptake, IC50 [3]: 1210 nM

BIM-26105, D-Ala-Asn-His-Trp-Ala-Val-D-ALa-His-Leuψ[CH2CH]Leu-NH2 (Neuromedin C analog) (peptide)
bombesin-stimulated [3H]Thymidine uptake, IC50 [3]: 107 nM

BIM-26106, desGly-D-Ala-His-Trp-Ala-Val-D-ALa-His-Leuψ[CH2CH]Leu-NH2 (Neuromedin C analog) (peptide)
bombesin-stimulated [3H]Thymidine uptake, IC50 [3]: 354 nM

BIM-26107, D-Phe-His-Trp-Ala-Val-Gly-His-Leuψ[CH2NH]Leu-NH2 (Neuromedin C analog) (peptide)
bombesin-stimulated [3H]Thymidine uptake, IC50 [3]: 154 nM

BIM-26108, N-Ac-D-Ala-His-Trp-Ala-Val-Gly-His-Leuψ[CH2NH]Leu-NH2 (GRP (19-27) analog) (peptide)
bombesin-stimulated [3H]Thymidine uptake, IC50 [3]: > 1000 nM

BIM-26113, D-Phe-Gln-Trp-Ala-Val-Gly-His-Leuψ[CH2NH]Leu-NH2 (Litorin analog) (peptide)
bombesin-stimulated [3H]Thymidine uptake, IC50 [3]: 9 nM

BIM-26122, D-Phe-Gln-Trp-Ala-Val-Gly-His-Leu-NH2 (Litorin analog) (peptide)
bombesin-stimulated [3H]Thymidine uptake, IC50 [3]: 28.6 nM
